ChEMBL document CHEMBL4330097 (J Med Chem, 2019)
Converted amounts (≈) assume the structure as drawn.

How the values were obtained:
[1] = Apparent permeability across basolateral to apical side in human Caco2 cells at 2 uM after 2 hrs by LC-MS/MS analysis; type: ADME, cell-based; conditions: Caco-2
[2] = Lipophilicity, log D of the compound in acetonitrile/water at 1:1 ratio at pH 7.5 by RP-HPLC analysis; type: physicochemical; conditions: acetonitrile/water 1:1 (RP-HPLC)
[3] = Chemical stability of the compound assessed as degradation rate at pH 1 to 10 after 24 hrs by HPLC-UV analysis; type: physicochemical; conditions: buffer, pH 1, 24 h
[4] = Clearance in Han/Wistar rat hepatocytes at 1 uM up 90 mins by HPLC-MS/MS analysis; type: ADME, cell-based, Hepatocyte
[5] = Maximal oral bioavailability in Han/Wistar rat; type: ADME, organism-based; conditions: in vivo
[6] = Apparent permeability across apical to basolateral side in human Caco2 cells at 2 uM after 2 hrs by LC-MS/MS analysis; type: ADME, cell-based; conditions: Caco-2
[7] = Clearance in human liver microsomes at 1 uM up 60 mins in presence of NADP and glucose-6-phosphate by LC-MS/MS analysis; type: ADME, Microsome; conditions: 1 h
[8] = Maximal oral bioavailability in human; type: ADME, organism-based; conditions: in vivo
[9] = Aqueous solubility of the compound in DMSO at 6.5 after 24 hrs by HPLC-MS/MS analysis; type: physicochemical; conditions: aqueous medium with DMSO, pH 6.5

CN1CCN(c2cnc3c(C4CCN(C(=O)c5ccc(OC(F)(F)F)cc5N)CC4)ncnc3c2)CC1 [BAY-885]
Papp B→A at 2 h, 2 µM [1]: 10.7 ×10⁻⁶ cm/s | chromatographic logD [2]: 2.4 | Stability [3]: Stable | CLH [4]: 61.7 mL/min/kg | Fmax [5]: 13% | Papp A→B at 2 h, 2 µM [6]: 18.4 ×10⁻⁶ cm/s | CLH [7]: 13 mL/min/kg | Fmax [8]: 38% | solubility at 24 h [9]: 218 µg/mL (≈ 423 µM)
